Among the test systems are BT-549; SNB-19; U-251; SK-MEL-5; UACC-62; SF-268; SK-MEL-2; ACHN; MDA-N; COLO 205; Hs-578T; NCI/ADR-RES; SF-539; UO-31; HCT-116; SN12C; Malme-3M; SK-MEL-28; HCC 2998; NCI-H226.
Assay in all cases: DTP human tumour cell line panel, 48 h

SMILES strings stand for the structures.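 Cells were grown in 96-well plates and exposed to each compound for 48 hours at five concentrations; endpoints were interpolated linearly between bracketing concentrations, or set to the highest concentration if not reached. GI50 is the concentration that inhibits growth by half.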 Active and inactive are the calls of the source. Cut-off read from the data, not from the text of the source: active = GI50 up to about 1.1 µM and inactive = higher. Bounds are passed on as bounds.

A word on the GI50: it is the concentration at which growth is held to half of that of the control. Take `O=C(/C=C/C(Cl)(Cl)Cl)Nc1ccc(Cl)cc1`: the GI50 was 17.2 µM (inactive) in the experiment with BT-549; 17.7 µM (inactive) in the experiment with SNB-19; 11.6 µM (inactive) in the experiment with U-251; 11.1 µM (inactive) in the experiment with SK-MEL-5; 7.64 µM (inactive) with UACC-62; 3.23 µM (inactive) with SF-268. In addition, the GI50 was 8.59 µM (inactive) with SK-MEL-2; 2.3 µM (inactive) in the experiment on ACHN; 3.44 µM (inactive) in the experiment with MDA-N; 2.19 µM (inactive) in the experiment with COLO 205; 25.4 µM (inactive) with Hs-578T; 2.45 µM (inactive) in the experiment on NCI/ADR-RES. The GI50 with SF-539 is 1.99 µM (inactive); in the experiment on UO-31, 0.698 µM (active); in the experiment on HCT-116, 4.73 µM (inactive); in the experiment with SN12C, 7.24 µM (inactive); in the experiment on Malme-3M it was 5.37 µM (inactive); in the experiment with SK-MEL-28, 18.3 µM (inactive). Further, the GI50 was 6.44 µM (inactive) in the experiment with HCC 2998 and 15.1 µM (inactive) in the experiment with NCI-H226.

`Cc1cc(N2CCOCC2)nc2ccc(Cc3ccc4nc(N5CCOCC5)cc(C)c4c3)cc12`: the GI50 in the experiment on BT-549 was 60.7 µM (inactive); in the experiment on SNB-19 it was 49.9 µM (inactive); in the experiment with U-251, 26.7 µM (inactive); in the experiment with SK-MEL-5 it was 16.2 µM (inactive); with UACC-62, 45.8 µM (inactive); in the experiment on SF-268 it was > 100 µM (inactive). Besides, the GI50 in the experiment on SK-MEL-2 was 63.5 µM (inactive); in the experiment on ACHN it was 48.5 µM (inactive); in the experiment with MDA-N, 36.6 µM (inactive); with COLO 205 it was 13.3 µM (inactive); in the experiment with Hs-578T it was > 100 µM (inactive); in the experiment on NCI/ADR-RES, 41.8 µM (inactive). Besides, the GI50 is 24.2 µM (inactive) with SF-539; 38.2 µM (inactive) with UO-31; 21.9 µM (inactive) in the experiment with HCT-116; 55.8 µM (inactive) in the experiment on SN12C; 51.1 µM (inactive) in the experiment on Malme-3M; 39.4 µM (inactive) with SK-MEL-28. The GI50 in the experiment with HCC 2998 is 15.6 µM (inactive); in the experiment with NCI-H226, 33.3 µM (inactive).

On to `OCCN(C1=NCCN1)/[N+](=C/c1ccc(Cl)cc1)[CH-]c1ccc(Cl)cc1`, for which the GI50 in the experiment on BT-549 is > 100 µM (inactive); in the experiment with SNB-19, > 100 µM (inactive); in the experiment with U-251, > 100 µM (inactive); in the experiment on SK-MEL-5, 23.8 µM (inactive); in the experiment on UACC-62 it was > 100 µM (inactive); with SF-268, > 100 µM (inactive). Moreover, the GI50 is 27.1 µM (inactive) with SK-MEL-2; > 100 µM (inactive) in the experiment with ACHN; > 100 µM (inactive) in the experiment on MDA-N; 62.4 µM (inactive) in the experiment on COLO 205; > 100 µM (inactive) with Hs-578T; > 100 µM (inactive) in the experiment on NCI/ADR-RES. Also, the GI50 with SF-539 is > 100 µM (inactive); in the experiment on UO-31, > 100 µM (inactive); in the experiment on HCT-116, 95.5 µM (inactive); with SN12C, > 100 µM (inactive); in the experiment on Malme-3M it was > 100 µM (inactive); with SK-MEL-28, > 100 µM (inactive). For the same compound, the GI50 was 29.4 µM (inactive) in the experiment with HCC 2998 and > 100 µM (inactive) with NCI-H226.

Take `CC(C)/C=N\N1C(N)=C(C#N)C(C#N)(C#N)C1C(C)C` (stereo not given): the GI50 was 35.2 µM (inactive) in the experiment on BT-549; > 100 µM (inactive) in the experiment on SNB-19; 39.6 µM (inactive) with U-251; 38.3 µM (inactive) in the experiment on SK-MEL-5; 26.4 µM (inactive) in the experiment with UACC-62; 56.6 µM (inactive) in the experiment with SF-268. Besides, the GI50 with SK-MEL-2 was 67.3 µM (inactive); with ACHN, 65.3 µM (inactive); with MDA-N it was 22.4 µM (inactive); with COLO 205 it was 48.1 µM (inactive); in the experiment with Hs-578T, 88.5 µM (inactive); in the experiment with NCI/ADR-RES, 31.3 µM (inactive). Also, the GI50 in the experiment with SF-539 is 22.7 µM (inactive); in the experiment on UO-31, 38 µM (inactive); with HCT-116 it was 47.9 µM (inactive); with SN12C, 69.8 µM (inactive); in the experiment on Malme-3M, > 100 µM (inactive); in the experiment on SK-MEL-28 it was 47 µM (inactive). The GI50 in the experiment on HCC 2998 is 34.4 µM (inactive); in the experiment with NCI-H226, 55.6 µM (inactive).

With `N#CC(NCCc1ccccc1)c1ccccc1` (stereo not given), the GI50 with BT-549, in the experiment with SNB-19, in the experiment with U-251, in the experiment on SK-MEL-5, with UACC-62 and in the experiment on SF-268 was > 100 µM (inactive) each time. The GI50 in the experiment with SK-MEL-2, in the experiment with ACHN, in the experiment with MDA-N, with COLO 205, in the experiment with Hs-578T and in the experiment with NCI/ADR-RES was > 100 µM (inactive) throughout. Further, the GI50 in the experiment on SF-539, in the experiment with UO-31, in the experiment on HCT-116, with SN12C, with Malme-3M and in the experiment on SK-MEL-28 was > 100 µM (inactive) throughout. Also, the GI50 in the experiment with HCC 2998 and in the experiment with NCI-H226 was > 100 µM (inactive) in each case.

Turning to `COc1cc(C(=O)O[C@@H]2[C@@H](OC(=O)c3cc(OC)c(OC)c(OC)c3)[C@@H](OC)O[C@@H]3CO[C@@H](c4ccccc4)O[C@@H]23)cc(OC)c1OC`, the GI50 in the experiment with BT-549 is 50.4 µM (inactive); in the experiment on SNB-19 it was > 100 µM (inactive); in the experiment with U-251, > 100 µM (inactive); with SK-MEL-5, > 100 µM (inactive); with UACC-62 it was > 100 µM (inactive); with SF-268, > 100 µM (inactive). Further, the GI50 in the experiment on SK-MEL-2, in the experiment with ACHN, with MDA-N, in the experiment with COLO 205, with Hs-578T and with NCI/ADR-RES was > 100 µM (inactive) each time. Besides, the GI50 with SF-539, in the experiment on UO-31, in the experiment with HCT-116, in the experiment on SN12C, in the experiment with Malme-3M and with SK-MEL-28 was > 100 µM (inactive) in each case. In addition, the GI50 in the experiment on HCC 2998 and in the experiment on NCI-H226 was > 100 µM (inactive) throughout.

Take `CN(C)c1ccc(/C=N/NC(=O)c2cnc3ccccc3c2)cc1`: the GI50 was 94 µM (inactive) in the experiment on BT-549; 48 µM (inactive) in the experiment on SNB-19; 38.7 µM (inactive) in the experiment on U-251; > 100 µM (inactive) in the experiment with SK-MEL-5; > 100 µM (inactive) with UACC-62; 18 µM (inactive) with SF-268. In addition, the GI50 in the experiment with SK-MEL-2 was > 100 µM (inactive); in the experiment with ACHN it was > 100 µM (inactive); in the experiment with MDA-N, 4.71 µM (inactive); in the experiment with COLO 205, > 100 µM (inactive); in the experiment on Hs-578T, 25.5 µM (inactive); in the experiment on NCI/ADR-RES, > 100 µM (inactive). Moreover, the GI50 in the experiment with SF-539 is 52 µM (inactive); with UO-31, > 100 µM (inactive); in the experiment with HCT-116 it was > 100 µM (inactive); in the experiment with SN12C, > 100 µM (inactive); in the experiment with Malme-3M it was 18.6 µM (inactive); in the experiment on SK-MEL-28 it was > 100 µM (inactive). Moreover, the GI50 is 42.1 µM (inactive) with HCC 2998 and > 100 µM (inactive) in the experiment with NCI-H226.

For the compound `CCC(C)NC(=S)N/N=C(\C)c1ccccn1` (stereo not given), the GI50 with BT-549 is 0.444 µM (active); with SNB-19 it was 1.45 µM (inactive); in the experiment on U-251, 0.126 µM (active); in the experiment with SK-MEL-5, 0.155 µM (active); in the experiment with UACC-62 it was 0.0733 µM (active); with SF-268, 0.351 µM (active). In addition, the GI50 in the experiment with SK-MEL-2 is 1.27 µM (inactive); with ACHN, < 0.01 µM (active); in the experiment on MDA-N, 0.57 µM (active); in the experiment on COLO 205 it was < 0.01 µM (active); in the experiment on Hs-578T, 0.396 µM (active); in the experiment with NCI/ADR-RES, < 0.01 µM (active). Moreover, the concentration for 50% growth inhibition (GI50) in the experiment on SF-539 is 0.906 µM (active); with UO-31 it was 0.142 µM (active); with HCT-116, < 0.01 µM (active); in the experiment with SN12C, 0.893 µM (active); with Malme-3M it was 1.83 µM (inactive); in the experiment on SK-MEL-28 it was 1.91 µM (inactive). In addition, the results for the GI50 in the experiment with HCC 2998 and in the experiment with NCI-H226 were 0.447 µM (active) and 0.102 µM (active), respectively.

As for `COc1cc(/C=C/C(=O)c2c([O-])on[n+]2-c2ccccc2)ccc1O`, the GI50 was 2.99 µM (inactive) in the experiment on BT-549; 4.82 µM (inactive) in the experiment on SNB-19; 3.1 µM (inactive) in the experiment with U-251; 3.78 µM (inactive) in the experiment with SK-MEL-5; 3.44 µM (inactive) in the experiment on UACC-62; 3.89 µM (inactive) in the experiment on SF-268. The GI50 in the experiment with SK-MEL-2 is 2.31 µM (inactive); with ACHN it was 2.32 µM (inactive); in the experiment on MDA-N it was 2.32 µM (inactive); in the experiment on COLO 205, 12.1 µM (inactive); in the experiment with Hs-578T, 2.43 µM (inactive); with NCI/ADR-RES, 2.48 µM (inactive). The GI50 in the experiment on SF-539 was 2.58 µM (inactive); in the experiment with UO-31, 3.25 µM (inactive); in the experiment on HCT-116, 2.19 µM (inactive); in the experiment on SN12C, 2.03 µM (inactive); in the experiment on Malme-3M it was 2.78 µM (inactive); with SK-MEL-28, 2.62 µM (inactive). Also, the GI50 in the experiment with HCC 2998 is 2.27 µM (inactive); in the experiment with NCI-H226 it was 5.53 µM (inactive).

In the case of `CC(NNC(=O)c1cc[n+]([BH2-]C#N)cc1)c1cccc(C(F)(F)F)c1` (stereo not given), the GI50 in the experiment with BT-549 is > 100 µM (inactive); with SNB-19 it was > 100 µM (inactive); with U-251 it was 88.7 µM (inactive); in the experiment on SK-MEL-5, 72.1 µM (inactive); in the experiment on UACC-62, 73.3 µM (inactive); in the experiment with SF-268 it was > 100 µM (inactive). For the same compound, the GI50 in the experiment on SK-MEL-2 was > 100 µM (inactive); in the experiment on ACHN, > 100 µM (inactive); in the experiment with MDA-N, 81.3 µM (inactive); in the experiment with COLO 205 it was > 100 µM (inactive); in the experiment on Hs-578T, 64.4 µM (inactive); in the experiment with NCI/ADR-RES, > 100 µM (inactive). Besides, the GI50 in the experiment on SF-539 was > 100 µM (inactive); with UO-31 it was 42 µM (inactive); in the experiment with HCT-116, 82 µM (inactive); in the experiment with SN12C, > 100 µM (inactive); in the experiment with Malme-3M, > 100 µM (inactive); in the experiment with SK-MEL-28, > 100 µM (inactive). Also, the GI50 in the experiment with HCC 2998 and with NCI-H226 was > 100 µM (inactive) in each case.
